PubChem BioAssay AID330 (DTP/NCI, 2004)
“And” between values parts separate entries of the source, which are not always exact repeats. Identical values can stand only once. Toxic doses and inconclusive results are not listed.

System: P388 leukemia ip, CD2F1 mice, survival T/C
Assay: NCI In Vivo Anticancer Drug Screen. Data for tumor model P388 Leukemia (intraperitoneal) in CD2F1 (CDF1) mice
Details: endpoint: median survival time, higher = longer survival
Outline: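 Mice carrying the transplanted tumor received test compound or vehicle. Survival was recorded in each group, and the value is the treated-group measurement divided by that of the vehicle-treated control group.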

[1] = dose: 50.0 mg/kg/injection, schedule: Q01DX005 (ip), vehicle: Klucel (hydroxypropylcellulose) (HPC)
[2] = dose: 100.0 mg/kg/injection, schedule: Q01DX005 (ip), vehicle: Klucel (hydroxypropylcellulose) (HPC)
[3] = dose: 200.0 mg/kg/injection, schedule: Q01DX005 (ip), vehicle: Klucel (hydroxypropylcellulose) (HPC)
[4] = dose: 100.0 mg/kg/injection, schedule: Q01DX001 (ip), vehicle: Klucel (hydroxypropylcellulose) (HPC)
[5] = dose: 100.0 mg/kg/injection, schedule: Q04DX003 (ip), vehicle: saline with Tween-80
[6] = dose: 200.0 mg/kg/injection, schedule: Q04DX003 (ip), vehicle: saline with Tween-80
[7] = dose: 400.0 mg/kg/injection, schedule: Q04DX003 (ip), vehicle: saline with Tween-80
[8] = dose: 60.0 mg/kg/injection, schedule: Q01DX005 (ip), vehicle: Klucel (hydroxypropylcellulose) (HPC)
[9] = dose: 120.0 mg/kg/injection, schedule: Q01DX005 (ip), vehicle: Klucel (hydroxypropylcellulose) (HPC)
[10] = dose: 240.0 mg/kg/injection, schedule: Q01DX005 (ip), vehicle: Klucel (hydroxypropylcellulose) (HPC)
[11] = dose: 50.0 mg/kg/injection, schedule: Q01DX005 (ip), vehicle: saline with Tween-80
[12] = dose: 60.0 mg/kg/injection, schedule: Q01DX005 (ip), vehicle: saline with Tween-80
[13] = dose: 120.0 mg/kg/injection, schedule: Q01DX005 (ip), vehicle: saline with Tween-80
[14] = dose: 240.0 mg/kg/injection, schedule: Q01DX005 (ip), vehicle: saline with Tween-80
[15] = dose: 50.0 mg/kg/injection, schedule: Q01DX009 (ip), vehicle: saline with Tween-80
[16] = dose: 100.0 mg/kg/injection, schedule: Q01DX009 (ip), vehicle: saline with Tween-80
[17] = dose: 100.0 mg/kg/injection, schedule: Q04DX002 (ip), vehicle: saline with Tween-80
[18] = dose: 200.0 mg/kg/injection, schedule: Q04DX002 (ip), vehicle: saline with Tween-80
[19] = dose: 25.0 mg/kg/injection, schedule: Q01DX009 (ip), vehicle: saline with Tween-80

For OCC1OC(n2cnc3c(NO)nc(NO)nc32)C(O)C1O (stereo not given), the T/C (dose: 2.25 mg/kg/injection, schedule: Q01DX009 (ip), vehicle: saline) was 100 % of control, the T/C (dose: 4.5 mg/kg/injection, schedule: Q01DX009 (ip), vehicle: saline) was 114 % of control and the T/C (dose: 14.3 mg/kg/injection, schedule: Q01DX009 (ip), vehicle: saline) was 107 % of control. For the same molecule, the T/C (dose: 18.0 mg/kg/injection, schedule: Q01DX009 (ip), vehicle: saline) was 114 % of control and the T/C (dose: 54.0 mg/kg/injection, schedule: Q01DX009 (ip), vehicle: saline) was 184 % of control.

In the case of C=C(Cl)C(=NC(C)(C)C)Nc1c(Cl)cccc1Cl, the T/C [1] is reported as 98 % of control and 95 % of control, the T/C [2] is reported as 100 % of control and the T/C [3] is reported as 100 % of control and 90 % of control.

In the case of CN1C(=O)Cn2c(nn(Cc3ccccc3)c(=O)c2=O)-c2cc(Cl)ccc21, the T/C [4] is reported as 96 % of control, the T/C (dose: 200.0 mg/kg/injection, schedule: Q01DX001 (ip), vehicle: Klucel (hydroxypropylcellulose) (HPC)) is reported as 101 % of control and the T/C (dose: 400.0 mg/kg/injection, schedule: Q01DX001 (ip), vehicle: Klucel (hydroxypropylcellulose) (HPC)) is reported as 99 % of control.

In the case of [CH3][Sn]([c]1ccccc1)([c]1cccc2ccccc12)[c]1cccc2ccccc12, the T/C [5] is reported as 89 % of control, the T/C [6] is reported as 91 % of control and the T/C [7] is reported as 88 % of control.

With O=S(=O)(O)SCCN1CCCCC1 the T/C (dose: 12.5 mg/kg/injection, schedule: Q01DX009 (ip), vehicle: saline) was 110 % of control, the T/C (dose: 25.0 mg/kg/injection, schedule: Q01DX009 (ip), vehicle: saline) was 100 % of control and the T/C (dose: 50.0 mg/kg/injection, schedule: Q01DX009 (ip), vehicle: saline) was 100 % of control.

For O=c1[nH]cnc2nc(SCc3ccc([N+](=O)[O-])cc3)[nH]c12, the T/C [8] was 105 % of control, the T/C [9] was 102 % of control and the T/C [10] was 108 % of control.

In the case of CC(C)NCC1CCc2cc(CO)c([N+](=O)[O-])cc2N1 (stereo not given), the T/C [1] is reported as 105 % of control, the T/C [2] is reported as 107 % of control and the T/C [3] is reported as 106 % of control.

For O=[N+]([O-])c1ccc(-c2csc(Nc3ccccn3)n2)o1, the T/C (dose: 12.5 mg/kg/injection, schedule: Q01DX005 (ip), vehicle: saline with Tween-80) was 95 % of control, the T/C (dose: 25.0 mg/kg/injection, schedule: Q01DX005 (ip), vehicle: saline with Tween-80) was 99 % of control and the T/C [11] was 88 % of control and 92 % of control.

With CN(C)c1ccc(/C=N/N=C(/C#N)[S][Sn]([S]/C(C#N)=N/N=C/c2ccc(N(C)C)cc2)([c]2ccccc2)[c]2ccccc2)cc1 the T/C (dose: 7.5 mg/kg/injection, schedule: Q01DX005 (ip), vehicle: saline with Tween-80) was 112 % of control and the T/C (dose: 15.0 mg/kg/injection, schedule: Q01DX005 (ip), vehicle: saline with Tween-80) was 123 % of control.

For CCOC1(C)CC(c2cc(OC)c(OC)c(OC)c2)c2cc3c(cc2O1)OCO3 (stereo not given), the T/C [8] was 96 % of control, the T/C [9] was 93 % of control and the T/C [10] was 92 % of control.

For Cc1nc2c(cnn2C)c(=O)n1-c1ccccc1, the T/C [1] was 96 % of control, the T/C [2] was 98 % of control and the T/C [3] was 100 % of control.

In the case of C/C(C=O)=C\c1ccc2c(c1)OCO2, the T/C [1] is reported as 104 % of control, the T/C [2] is reported as 97 % of control and the T/C [3] is reported as 106 % of control.

Cc1ccccc1C1C2CCCC(C2=O)C(c2ccccc2C)N1C (stereo not given) was tested, and the T/C (dose: 100.0 mg/kg/injection, schedule: Q04DX003 (ip), vehicle: saline) was 100 % of control, the T/C (dose: 200.0 mg/kg/injection, schedule: Q04DX003 (ip), vehicle: saline) was 103 % of control and the T/C (dose: 400.0 mg/kg/injection, schedule: Q04DX003 (ip), vehicle: saline) was 89 % of control.

For COC1=CC(=O)C(OC)=C(c2c[nH]c3ccccc23)C1=O, the T/C [12] was 95 % of control, the T/C [13] was 87 % of control and the T/C [14] was 97 % of control.

With O=C(NC(=O)c1ccc(F)c(Cl)c1)NC1CC1 the T/C [8] was 100 % of control, the T/C [9] was 102 % of control and the T/C [10] was 93 % of control.

For COC/C(=N/Nc1ccc([N+](=O)[O-])cc1[N+](=O)[O-])c1ccccc1, the T/C [5] was 109 % of control, the T/C [6] was 109 % of control and the T/C [7] was 90 % of control.

With CC(C)(CO)N(CCO)CCO the T/C (dose: 50.0 mg/kg/injection, schedule: Q01DX005 (ip), vehicle: saline) was 106 % of control, the T/C (dose: 100.0 mg/kg/injection, schedule: Q01DX005 (ip), vehicle: saline) was 106 % of control and the T/C (dose: 200.0 mg/kg/injection, schedule: Q01DX005 (ip), vehicle: saline) was 106 % of control.

In the case of N#CCCCCCBr, the T/C [15] is reported as 98 % of control, the T/C [16] is reported as 100 % of control and the T/C (dose: 200.0 mg/kg/injection, schedule: Q01DX009 (ip), vehicle: saline with Tween-80) is reported as 100 % of control.

CCc1nnc2c(c(=O)n(C)c(=O)n2C)[n+]1[O-] was tested, and the T/C (dose: 20.0 mg/kg/injection, schedule: Q01DX001 (ip), vehicle: Klucel (hydroxypropylcellulose) (HPC)) was 106 % of control, the T/C (dose: 40.0 mg/kg/injection, schedule: Q01DX001 (ip), vehicle: Klucel (hydroxypropylcellulose) (HPC)) was 106 % of control and the T/C (dose: 80.0 mg/kg/injection, schedule: Q01DX001 (ip), vehicle: Klucel (hydroxypropylcellulose) (HPC)) was 112 % of control. The T/C [4] was 109 % of control.

With CSC(=S)NS(=O)(=O)c1cccs1 the T/C (dose: 50.0 mg/kg/injection, schedule: Q01DX009 (ip), vehicle: Klucel (hydroxypropylcellulose) (HPC)) was 98 % of control and the T/C (dose: 100.0 mg/kg/injection, schedule: Q01DX009 (ip), vehicle: Klucel (hydroxypropylcellulose) (HPC)) was 91 % of control.

For O=C1CSC(c2cccs2)N1CCN1C(=O)CSC1c1cccs1 (stereo not given), the T/C [17] was 100 % of control and the T/C [18] was 96 % of control.

For CN1C(=O)CC(Sc2ccccc2)c2ccccc21 (stereo not given), the T/C [19] was 96 % of control, the T/C [15] was 97 % of control and the T/C [16] was 93 % of control.

COc1cccc2c1C(=O)c1c(cc3c(c1O)[C@@H](OC1CC(NC(=O)c4ccc(N=[N+]=[N-])cc4)C(O)C(C)O1)C[C@](O)(C(C)=O)C3)C2=O (stereo not given in full) was tested, and the T/C (dose: 6.25 mg/kg/injection, schedule: Q04DX003 (ip), vehicle: olive oil, sesame oil, peanut oil) was 100 % of control, the T/C (dose: 12.5 mg/kg/injection, schedule: Q04DX003 (ip), vehicle: olive oil, sesame oil, peanut oil) was 97 % of control and the T/C (dose: 25.0 mg/kg/injection, schedule: Q04DX003 (ip), vehicle: olive oil, sesame oil, peanut oil) was 100 % of control. For the same molecule, the T/C (dose: 50.0 mg/kg/injection, schedule: Q04DX003 (ip), vehicle: olive oil, sesame oil, peanut oil) was 112 % of control.

With Cc1cc[n+](C)c2ccccc12 the T/C (dose: 9.37 mg/kg/injection, schedule: Q01DX009 (ip), vehicle: saline with Tween-80) was 109 % of control, the T/C (dose: 18.75 mg/kg/injection, schedule: Q01DX009 (ip), vehicle: saline with Tween-80) was 100 % of control and the T/C (dose: 37.5 mg/kg/injection, schedule: Q01DX009 (ip), vehicle: saline with Tween-80) was 104 % of control.

With O=C(c1ccccc1)c1ccc([N+](=O)[O-])cc1 the T/C (dose: 3.13 mg/kg/injection, schedule: Q01DX009 (ip), vehicle: saline with Tween-80) was 97 % of control, the T/C (dose: 6.25 mg/kg/injection, schedule: Q01DX009 (ip), vehicle: saline with Tween-80) was 95 % of control and the T/C (dose: 12.5 mg/kg/injection, schedule: Q01DX009 (ip), vehicle: saline with Tween-80) was 91 % of control. For the same molecule, the T/C [19] was 91 % of control, the T/C (dose: 50.0 mg/kg/injection, schedule: Q04DX003 (ip), vehicle: saline with Tween-80) was 95 % of control and the T/C [5] was 100 % of control. The T/C [6] was 109 % of control.

In the case of COc1cc(C2N=C(N)N=C(N)N2c2ccc(S(N)(=O)=O)cc2)cc(OC)c1OC (stereo not given), the T/C [8] is reported as 103 % of control and the T/C [9] is reported as 103 % of control.

O=C1C(C(=NC2CCCCC2)c2ccccc2)=C(O)c2ccccc21 was tested, and the T/C [17] was 104 % of control and the T/C [18] was 100 % of control.

For COc1ccc(CCNC2=CC(=O)CCC2)cc1OC, the T/C [11] was 101 % of control, the T/C (dose: 100.0 mg/kg/injection, schedule: Q01DX005 (ip), vehicle: saline with Tween-80) was 99 % of control and the T/C (dose: 200.0 mg/kg/injection, schedule: Q01DX005 (ip), vehicle: saline with Tween-80) was 101 % of control.

With N#Cc1c(-c2nc3ccccc3s2)c(=O)oc2cc(O)ccc12 the T/C [12] was 99 % of control, the T/C [13] was 95 % of control and the T/C [14] was 95 % of control.
